What was measured:
[1] = tested on: MV4-11; test: Antiproliferative activity against human MV4-11 cells assessed as reduction in cell viability incubated for 72 hrs by CCK-8 assay; type: functional, cell-based; details: MV4-11, 72 h
[2] = molecular target: Histone deacetylase 1 (Homo sapiens, UniProt Q13547)
Description: Inhibition of C-terminal 6His-FLAG-tagged human recombinant HDAC1 (1 to 482 residues) expressed in Sf9 cells using Ac-peptide as substrate preincubated for 15 mins followed by substrate addition and measured after 1 hr by plate reader analysis

[3] = molecular target: Phosphatidylinositol 4,5-bisphosphate 3-kinase catalytic subunit alpha isoform (Homo sapiens, UniProt P42336)
Description: Inhibition of PI3Kalpha (unknown origin) using PIP2 as substrate incubated for 1 hr in presence of ATP by ADP-Glo assay

[4] = tested on: Ramos; test: Antiproliferative activity against human Ramos cells assessed as reduction in cell viability incubated for 72 hrs by CCK-8 assay
[5] = tested on: Raji; test: Antiproliferative activity against human Raji cells assessed as reduction in cell viability incubated for 72 hrs by CCK-8 assay; type: functional, cell-based
[6] = molecular target: Phosphatidylinositol 4,5-bisphosphate 3-kinase catalytic subunit beta isoform (Homo sapiens, UniProt P42338); test: Inhibition of PI3Kbeta (unknown origin) using PIP2 as substrate incubated for 1 hr in presence of ATP by ADP-Glo assay
[7] = Tmax in ICR mouse at 60 mg/kg, po measured after 24 hrs by LC-MS/MS analysis; type: ADME, organism-based; details: in vivo
[8] = AUC(0 to infinity) in ICR mouse at 6 mg/kg, iv measured after 24 hrs by LC-MS/MS analysis; type: ADME, organism-based; details: in vivo
[9] = Terminal half life in ICR mouse at 60 mg/kg, po measured after 24 hrs by LC-MS/MS analysis; type: ADME, organism-based; details: in vivo, read-out: beta t1/2 (converted)
[10] = molecular target: Phosphatidylinositol 4,5-bisphosphate 3-kinase catalytic subunit delta isoform (Homo sapiens, UniProt O00329); test: Inhibition of PI3Kdelta (unknown origin) using PIP2 as substrate incubated for 1 hr in presence of ATP by ADP-Glo assay
[11] = Cmax in ICR mouse at 60 mg/kg, po measured after 24 hrs by LC-MS/MS analysis; type: ADME, organism-based; details: in vivo
[12] = Terminal half life in ICR mouse at 6 mg/kg, iv measured after 24 hrs by LC-MS/MS analysis; type: ADME, organism-based; details: in vivo
[13] = tested on: MV4-11; test: Antitumor activity against human MV4-11 cells xenografted in BALB/c nude mouse assessed as tumor growth inhibition at 20 mg/kg, ip administered once daily for 14 days relative to control; type: functional; details: MV4-11, 336 h, time 14 day, read-out: TGI
[14] = tested on: MV4-11; test: Antitumor activity against human MV4-11 cells xenografted in BALB/c nude mouse assessed as tumor growth inhibition at 60 mg/kg, po administered once daily for 14 days relative to control; type: functional; details: MV4-11, 336 h, time 14 day, read-out: TGI
[15] = Toxicity in BALB/c nude mouse xenografted with human MV4-11 cells assessed as change in body weight at 10 to 20 mg/kg, ip administered only daily for 14 days and measured twice a week; type: organism-based; details: in vivo, 336 h, dose 10-20 mg/kg, time 14 day
[16] = Antiproliferative activity against human MINO cells assessed as reduction in cell viability incubated for 72 hrs by CCK-8 assay
[17] = tested on: NB-4; test: Antiproliferative activity against human NB4 cells assessed as reduction in cell viability incubated for 72 hrs by CCK-8 assay; type: functional, cell-based; details: NB-4, 72 h
[18] = tested on: L1210; test: Antiproliferative activity against mouse L1210 cells assessed as reduction in cell viability incubated for 72 hrs by CCK-8 assay; type: functional, cell-based; details: L1210, 72 h
[19] = AUC(0 to infinity) in ICR mouse at 60 mg/kg, po measured after 24 hrs by LC-MS/MS analysis; type: ADME, organism-based; details: ICR, in vivo
[20] = tested on: Friend leukemia cell line; test: Antiproliferative activity against mouse Friend leukemia cell line assessed as reduction in cell viability incubated for 72 hrs by CCK-8 assay; type: functional, cell-based
[21] = molecular target: Histone deacetylase 2 (Homo sapiens, UniProt Q92769); test: Inhibition of C-terminal His6-FLAG-tagged human recombinant HDAC2 (1 to 488 residues) expressed in Sf9 cells using Ac-peptide as substrate preincubated for 15 mins followed by substrate addition and measured after 1 hr by plate reader analysis
[22] = AUC(0 to t) in ICR mouse at 60 mg/kg, po measured after 24 hrs by LC-MS/MS analysis; type: ADME, organism-based; details: in vivo
[23] = tested on: DOHH-2; test: Antiproliferative activity against human DOHH-2 cells assessed as reduction in cell viability incubated for 72 hrs by CCK-8 assay; type: functional, cell-based; details: DOHH-2, 72 h
[24] = tested on: HL-60; test: Antiproliferative activity against human HL-60 cells assessed as reduction in cell viability incubated for 72 hrs by CCK-8 assay; type: functional, cell-based; details: HL-60, 72 h
[25] = Toxicity in BALB/c nude mouse xenografted with human MV4-11 cells assessed as change in body weight at 60 mg/kg, po administered only daily for 14 days and measured twice a week; type: organism-based; details: in vivo, 336 h, time 14 day
[26] = molecular target: Protein deacetylase HDAC6 (Homo sapiens, UniProt Q9UBN7); test: Inhibition of HDAC6 (unknown origin)
[27] = molecular target: Histone deacetylase 11 (Homo sapiens, UniProt Q96DB2); test: Inhibition of human HDAC11 (1 to 347 end residues) expressed in Sf9 cells using Ac-peptide as substrate incubated for 1 hr by plate reader analysis
[28] = molecular target: Histone deacetylase 4 (Homo sapiens, UniProt P56524); test: Inhibition of N-terminal GST-tagged and C-terminal His-tagged human HDAC4 (627 to 1084 end residues) expressed in baculovirus infected Sf9 cells using Ac-peptide as substrate incubated for 1 hr by plate reader analysis
[29] = AUC(0 to t) in ICR mouse at 6 mg/kg, iv measured after 24 hrs by LC-MS/MS analysis; type: ADME, organism-based; details: in vivo
[30] = molecular target: Phosphatidylinositol 4,5-bisphosphate 3-kinase catalytic subunit gamma isoform (Homo sapiens, UniProt P48736); test: Inhibition of PI3Kgamma (unknown origin) using PIP2 as substrate incubated for 1 hr in presence of ATP by ADP-Glo assay
[31] = tested on: EL4; test: Antiproliferative activity against mouse EL4 cells assessed as reduction in cell viability incubated for 72 hrs by CCK-8 assay; type: functional, cell-based; details: EL4, 72 h
[32] = molecular target: Serine/threonine-protein kinase mTOR (Homo sapiens, UniProt P42345); test: Inhibition of N-terminal FLAG-tagged recombinant human mTOR (1362 to end residues) using ULight-4E-BP1 (Thr37/46) peptide as substrate incubated for 30 mins in presence of ATP by LANCE ultra assay
[33] = tested on: BaF3; test: Antiproliferative activity against mouse BaF3 cells assessed as reduction in cell viability incubated for 72 hrs by CCK-8 assay; type: functional, cell-based; details: BaF3, 72 h
[34] = Oral bioavailability in ICR mouse at 60 mg/kg measured after 24 hrs by LC-MS/MS analysis; type: ADME, organism-based; details: in vivo
[35] = Apparent volume of distribution in ICR mouse at 6 mg/kg, iv measured after 24 hrs by LC-MS/MS analysis; type: ADME, organism-based; details: in vivo
[36] = tested on: MV4-11; test: Antitumor activity against human MV4-11 cells xenografted in BALB/c nude mouse assessed as tumor growth inhibition at 10 mg/kg, ip administered once daily for 14 days relative to control; type: functional; details: MV4-11, 336 h, time 14 day, read-out: TGI
[37] = molecular target: Histone deacetylase 3 (Homo sapiens, UniProt O15379); test: Inhibition of HDAC3 (unknown origin)
[38] = molecular target: Histone deacetylase 8 (Homo sapiens, UniProt Q9BY41); test: Inhibition of C-terminal His-tagged human recombinant HDAC8 (1 to 377 end residues) expressed in Sf9 cells using Ac-peptide as substrate incubated for 1 hr by plate reader analysis
[39] = tested on: MV4-11; test: Antiproliferative activity against human MV4-11 cells assessed as reduction in cell viability incubated for 72 hrs in presence of chidamide by CCK-8 assay; type: functional, cell-based; details: MV4-11, 72 h

Chain of Phosphatidylinositol 4,5-bisphosphate 3-kinase catalytic subunit alpha isoform (P42336 whole entry, canonical isoform): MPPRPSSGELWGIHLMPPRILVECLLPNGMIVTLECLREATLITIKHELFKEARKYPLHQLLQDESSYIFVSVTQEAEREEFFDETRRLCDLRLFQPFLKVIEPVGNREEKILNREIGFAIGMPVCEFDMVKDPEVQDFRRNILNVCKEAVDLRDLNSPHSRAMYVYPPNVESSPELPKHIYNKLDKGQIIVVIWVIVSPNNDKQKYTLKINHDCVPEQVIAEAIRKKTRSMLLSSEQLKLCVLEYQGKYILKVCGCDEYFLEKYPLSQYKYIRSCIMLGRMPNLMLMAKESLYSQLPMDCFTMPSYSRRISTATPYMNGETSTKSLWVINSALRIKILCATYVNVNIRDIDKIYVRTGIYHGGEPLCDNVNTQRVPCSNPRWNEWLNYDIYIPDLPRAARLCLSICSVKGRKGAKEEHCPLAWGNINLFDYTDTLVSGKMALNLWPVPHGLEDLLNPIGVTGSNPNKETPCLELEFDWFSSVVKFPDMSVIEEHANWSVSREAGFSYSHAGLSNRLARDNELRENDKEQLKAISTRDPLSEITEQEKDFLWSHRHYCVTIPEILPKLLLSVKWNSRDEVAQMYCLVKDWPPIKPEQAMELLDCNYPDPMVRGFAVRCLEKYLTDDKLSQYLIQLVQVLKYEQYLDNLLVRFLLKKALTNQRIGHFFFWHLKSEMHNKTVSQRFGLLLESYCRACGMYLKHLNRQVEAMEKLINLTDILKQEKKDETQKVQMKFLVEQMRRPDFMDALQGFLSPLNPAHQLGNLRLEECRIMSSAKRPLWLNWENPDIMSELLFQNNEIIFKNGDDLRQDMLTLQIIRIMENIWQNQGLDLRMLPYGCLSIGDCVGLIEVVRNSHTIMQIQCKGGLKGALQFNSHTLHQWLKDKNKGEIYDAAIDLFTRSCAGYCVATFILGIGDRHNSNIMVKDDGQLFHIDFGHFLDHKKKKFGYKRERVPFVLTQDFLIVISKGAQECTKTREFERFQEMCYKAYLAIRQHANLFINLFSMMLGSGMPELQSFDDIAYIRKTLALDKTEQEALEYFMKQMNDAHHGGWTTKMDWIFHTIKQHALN
Chain of Histone deacetylase 1 (Q13547 whole entry, canonical isoform): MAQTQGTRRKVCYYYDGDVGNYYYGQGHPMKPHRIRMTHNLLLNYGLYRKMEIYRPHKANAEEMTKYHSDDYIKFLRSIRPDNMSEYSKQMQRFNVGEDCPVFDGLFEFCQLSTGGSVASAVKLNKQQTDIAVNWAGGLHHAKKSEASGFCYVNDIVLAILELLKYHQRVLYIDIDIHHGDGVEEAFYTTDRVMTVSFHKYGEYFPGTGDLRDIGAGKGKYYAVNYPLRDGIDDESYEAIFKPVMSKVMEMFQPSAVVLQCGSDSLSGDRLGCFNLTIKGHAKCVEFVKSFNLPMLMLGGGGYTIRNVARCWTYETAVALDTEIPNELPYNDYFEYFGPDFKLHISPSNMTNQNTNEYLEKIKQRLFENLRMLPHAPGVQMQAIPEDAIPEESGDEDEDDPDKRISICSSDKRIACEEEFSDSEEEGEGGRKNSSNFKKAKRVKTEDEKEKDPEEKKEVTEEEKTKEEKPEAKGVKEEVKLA
Chain of Histone deacetylase 3 (O15379 whole entry): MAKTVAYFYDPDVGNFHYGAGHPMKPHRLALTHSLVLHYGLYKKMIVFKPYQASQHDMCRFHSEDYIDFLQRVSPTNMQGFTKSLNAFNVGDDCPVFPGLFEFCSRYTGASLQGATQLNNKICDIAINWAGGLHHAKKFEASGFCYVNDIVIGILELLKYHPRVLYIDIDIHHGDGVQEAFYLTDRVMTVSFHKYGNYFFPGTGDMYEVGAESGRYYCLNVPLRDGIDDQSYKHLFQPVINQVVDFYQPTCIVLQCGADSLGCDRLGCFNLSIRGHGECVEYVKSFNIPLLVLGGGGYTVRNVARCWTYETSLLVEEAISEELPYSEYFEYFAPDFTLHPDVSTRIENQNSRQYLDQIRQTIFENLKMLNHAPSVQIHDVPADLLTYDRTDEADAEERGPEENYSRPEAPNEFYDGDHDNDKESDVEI
Chain of Phosphatidylinositol 4,5-bisphosphate 3-kinase catalytic subunit beta isoform (P42338 whole entry, canonical isoform): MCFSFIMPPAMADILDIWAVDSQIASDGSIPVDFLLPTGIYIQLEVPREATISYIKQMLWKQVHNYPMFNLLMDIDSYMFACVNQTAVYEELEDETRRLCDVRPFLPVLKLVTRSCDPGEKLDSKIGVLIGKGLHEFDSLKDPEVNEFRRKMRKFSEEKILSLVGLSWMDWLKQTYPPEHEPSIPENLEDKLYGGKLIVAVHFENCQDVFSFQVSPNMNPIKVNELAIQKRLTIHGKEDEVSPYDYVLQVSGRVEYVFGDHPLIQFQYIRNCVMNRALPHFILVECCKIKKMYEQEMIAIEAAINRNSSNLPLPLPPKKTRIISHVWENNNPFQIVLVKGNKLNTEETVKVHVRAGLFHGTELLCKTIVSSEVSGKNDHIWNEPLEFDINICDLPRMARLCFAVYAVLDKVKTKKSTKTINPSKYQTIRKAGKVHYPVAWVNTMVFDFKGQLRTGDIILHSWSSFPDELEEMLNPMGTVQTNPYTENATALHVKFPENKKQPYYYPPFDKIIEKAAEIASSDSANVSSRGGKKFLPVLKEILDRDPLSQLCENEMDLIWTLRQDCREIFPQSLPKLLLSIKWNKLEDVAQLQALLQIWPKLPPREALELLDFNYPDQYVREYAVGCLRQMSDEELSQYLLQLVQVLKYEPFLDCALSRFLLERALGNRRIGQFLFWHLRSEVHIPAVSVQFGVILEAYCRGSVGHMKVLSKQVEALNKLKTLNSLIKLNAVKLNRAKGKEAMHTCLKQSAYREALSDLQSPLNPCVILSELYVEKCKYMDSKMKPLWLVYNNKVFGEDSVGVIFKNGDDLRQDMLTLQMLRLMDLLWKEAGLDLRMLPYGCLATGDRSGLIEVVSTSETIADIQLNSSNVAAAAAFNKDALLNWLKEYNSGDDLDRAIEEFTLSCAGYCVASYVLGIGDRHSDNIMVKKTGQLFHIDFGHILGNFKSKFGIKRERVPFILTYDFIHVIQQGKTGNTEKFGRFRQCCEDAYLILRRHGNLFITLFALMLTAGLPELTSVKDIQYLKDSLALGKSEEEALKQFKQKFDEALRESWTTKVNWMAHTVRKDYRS
Chain of Phosphatidylinositol 4,5-bisphosphate 3-kinase catalytic subunit gamma isoform (P48736 whole entry, canonical isoform): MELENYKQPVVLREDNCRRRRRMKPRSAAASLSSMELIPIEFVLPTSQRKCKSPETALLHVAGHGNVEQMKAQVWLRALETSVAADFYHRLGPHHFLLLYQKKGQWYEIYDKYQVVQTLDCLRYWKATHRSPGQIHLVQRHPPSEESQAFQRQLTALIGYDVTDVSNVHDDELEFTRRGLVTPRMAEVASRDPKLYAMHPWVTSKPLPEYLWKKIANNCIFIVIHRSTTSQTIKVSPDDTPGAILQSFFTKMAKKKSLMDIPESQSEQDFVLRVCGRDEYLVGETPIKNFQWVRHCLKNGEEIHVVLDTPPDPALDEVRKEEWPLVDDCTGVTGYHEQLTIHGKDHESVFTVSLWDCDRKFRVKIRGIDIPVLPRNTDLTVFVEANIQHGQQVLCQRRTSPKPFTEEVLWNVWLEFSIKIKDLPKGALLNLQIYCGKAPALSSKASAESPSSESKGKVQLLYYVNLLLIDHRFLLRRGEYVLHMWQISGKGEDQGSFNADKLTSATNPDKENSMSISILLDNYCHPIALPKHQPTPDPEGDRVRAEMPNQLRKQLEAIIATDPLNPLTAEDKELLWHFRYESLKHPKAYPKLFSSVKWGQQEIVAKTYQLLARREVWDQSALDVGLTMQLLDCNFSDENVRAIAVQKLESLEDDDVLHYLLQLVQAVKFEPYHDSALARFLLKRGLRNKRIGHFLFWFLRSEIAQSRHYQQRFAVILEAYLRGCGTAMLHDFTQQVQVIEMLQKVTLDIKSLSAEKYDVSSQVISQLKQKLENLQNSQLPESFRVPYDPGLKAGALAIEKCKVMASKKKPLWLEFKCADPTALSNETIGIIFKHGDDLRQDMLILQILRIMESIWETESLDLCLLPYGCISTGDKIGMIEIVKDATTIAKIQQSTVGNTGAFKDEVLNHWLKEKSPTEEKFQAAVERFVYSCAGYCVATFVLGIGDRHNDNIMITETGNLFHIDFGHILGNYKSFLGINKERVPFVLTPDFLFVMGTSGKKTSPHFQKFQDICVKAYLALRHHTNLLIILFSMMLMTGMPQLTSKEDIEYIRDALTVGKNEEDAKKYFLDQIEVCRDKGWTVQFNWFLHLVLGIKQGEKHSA
Chain of Histone deacetylase 2 (Q92769 whole entry, the tested form may be a part): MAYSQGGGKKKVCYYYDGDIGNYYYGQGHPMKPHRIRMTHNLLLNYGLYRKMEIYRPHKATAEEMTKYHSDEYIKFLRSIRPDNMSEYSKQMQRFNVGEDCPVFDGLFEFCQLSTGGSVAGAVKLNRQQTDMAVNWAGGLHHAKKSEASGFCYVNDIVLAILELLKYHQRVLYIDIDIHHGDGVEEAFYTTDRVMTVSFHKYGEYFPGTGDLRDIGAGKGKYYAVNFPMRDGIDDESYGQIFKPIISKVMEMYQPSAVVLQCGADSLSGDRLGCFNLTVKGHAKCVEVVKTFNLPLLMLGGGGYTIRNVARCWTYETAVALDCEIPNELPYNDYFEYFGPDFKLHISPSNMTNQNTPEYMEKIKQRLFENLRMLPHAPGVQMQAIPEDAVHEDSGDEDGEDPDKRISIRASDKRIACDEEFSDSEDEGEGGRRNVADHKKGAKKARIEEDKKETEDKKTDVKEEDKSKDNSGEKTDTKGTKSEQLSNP
Chain of Histone deacetylase 11 (Q96DB2 whole entry): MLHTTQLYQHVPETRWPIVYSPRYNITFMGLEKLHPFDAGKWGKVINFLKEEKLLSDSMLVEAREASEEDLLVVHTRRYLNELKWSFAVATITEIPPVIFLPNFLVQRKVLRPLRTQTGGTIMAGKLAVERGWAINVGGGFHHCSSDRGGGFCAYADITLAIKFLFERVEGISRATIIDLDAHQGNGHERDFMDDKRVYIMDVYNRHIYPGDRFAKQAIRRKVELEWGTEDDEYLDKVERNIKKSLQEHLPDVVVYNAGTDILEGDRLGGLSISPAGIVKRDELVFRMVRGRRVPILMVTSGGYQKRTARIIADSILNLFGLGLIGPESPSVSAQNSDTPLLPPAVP

Question: With `COc1ncc(-c2cc(OCCCCCC(=O)Nc3ccccc3N)c3ncnc(C)c3c2)cc1NS(=O)(=O)c1ccc(F)cc1F` as the compound, how does the IC50 [1] read?
Answer: 0.01 µM

Question: And the IC50 [2]?
Answer: 1.31 µM

Question: What about the IC50 [3] of the same compound?
Answer: 0.00021 µM

Question: Which IC50 [1] does the source give for `COc1ncc(-c2cc(OCCOc3ccc(C(=O)Nc4ccccc4N)cc3)c3ncnc(C)c3c2)cc1NS(=O)(=O)c1ccc(F)cc1F` here?
Answer: 0.41 µM

Question: What about the IC50 [2] of the same compound?
Answer: 0.056 µM

Question: What about the IC50 [3] of the same compound?
Answer: 0.00058 µM

Question: For `COc1ncc(-c2cc(OCCCOc3ccc(C(=O)Nc4ccccc4N)cc3)c3ncnc(C)c3c2)cc1NS(=O)(=O)c1ccc(F)cc1F`, which IC50 [1] is on record?
Answer: 0.39 µM

Question: And the IC50 [2]?
Answer: 0.095 µM

Question: What about the IC50 [3] of the same compound?
Answer: 0.00039 µM

Question: Which IC50 [1] does the source give for `COc1ncc(-c2cc(OCCCCCCCC(=O)Nc3ccccc3N)c3ncnc(C)c3c2)cc1NS(=O)(=O)c1ccc(F)cc1F` here?
Answer: 0.02 µM

Question: And the IC50 [2]?
Answer: 0.525 µM

Question: What about the IC50 [3] of the same compound?
Answer: 0.00028 µM

Question: Which IC50 [1] does the source give for `COc1ncc(-c2cc(OCCCc3ccc(C(=O)Nc4ccccc4N)cc3)c3ncnc(C)c3c2)cc1NS(=O)(=O)c1ccc(F)cc1F` here?
Answer: 0.05 µM

Question: What about the IC50 [4] of the same compound?
Answer: 5 µM

Question: And the IC50 [5]?
Answer: 4.6 µM

Question: What about the IC50 [6] of the same compound?
Answer: 0.00062 µM

Question: What about the Tmax [7] of the same compound?
Answer: 0.25 h

Question: What about the AUC [8] of the same compound?
Answer: 4930 ng·h/mL

Question: What about the half-life [9] of the same compound?
Answer: 4.46 h

Question: What about the IC50 [10] of the same compound?
Answer: 0.0018 µM

Question: What about the Cmax [11] of the same compound?
Answer: 306 ng/mL

Question: What about the “beta t1/2” value [12] of the same compound?
Answer: 2.43 h

Question: And the inhibition in vivo at 20 mg/kg [13]?
Answer: 60.7%

Question: And the inhibition in vivo at 60 mg/kg [14]?
Answer: 64.3%

Question: And the IC50 [2]?
Answer: 0.028 µM

Question: And the Activity [15]?
Answer: Non-Toxic

Question: What about the IC50 [16] of the same compound?
Answer: 6.6 µM

Question: What about the IC50 [17] of the same compound?
Answer: 0.37 µM

Question: What about the IC50 [18] of the same compound?
Answer: 0.85 µM

Question: What about the AUC(0-inf) [19] of the same compound?
Answer: 1710 ng·h/mL

Question: What about the IC50 [20] of the same compound?
Answer: 0.32 µM

Question: And the IC50 [21]?
Answer: 0.0845 µM

Question: And the AUC(0-t) at 24 h [22]?
Answer: 1230 ng·h/mL

Question: What about the IC50 [23] of the same compound?
Answer: 5.3 µM

Question: What about the IC50 [24] of the same compound?
Answer: 0.33 µM

Question: And the Activity [25]?
Answer: Non-Toxic

Question: What about the IC50 [26] of the same compound?
Answer: > 10 µM

Question: What about the IC50 [27] of the same compound?
Answer: 3.52 µM

Question: What about the IC50 [28] of the same compound?
Answer: > 10 µM

Question: What about the AUC(0-t) at 24 h [29] of the same compound?
Answer: 4880 ng·h/mL

Question: And the IC50 [30]?
Answer: 0.015 µM

Question: And the IC50 [31]?
Answer: 0.84 µM

Question: What about the IC50 [32] of the same compound?
Answer: 0.0095 µM

Question: And the IC50 [3]?
Answer: 0.00026 µM

Question: What about the IC50 [33] of the same compound?
Answer: 0.08 µM

Question: And the bioavailability [34]?
Answer: 3.5%

Question: What about the Vz [35] of the same compound?
Answer: 4.27 L/kg

Question: What about the inhibition in vivo at 10 mg/kg [36] of the same compound?
Answer: 50%

Question: And the IC50 [37]?
Answer: 0.0066 µM

Question: And the IC50 [38]?
Answer: > 10 µM

Question: Which IC50 [1] does the source give for `Cc1nc(NC(=O)N2CCC[C@H]2C(N)=O)sc1-c1ccnc(C(C)(C)C(F)(F)F)c1` [ALPELISIB] here?
Answer: 3.5 µM

Question: And the IC50 [39]?
Answer: 0.19 µM

Question: With `Nc1cc(C(F)(F)F)c(-c2cc(N3CCOCC3)nc(N3CCOCC3)n2)cn1` [BUPARLISIB] as the compound, how does the IC50 [1] read?
Answer: 0.56 µM

Question: And the IC50 [4]?
Answer: 5.4 µM

Question: What about the IC50 [5] of the same compound?
Answer: 0.99 µM

Question: What about the IC50 [16] of the same compound?
Answer: 1.5 µM

Question: What about the IC50 [17] of the same compound?
Answer: 0.75 µM

Question: What about the IC50 [18] of the same compound?
Answer: 0.37 µM

Question: What about the IC50 [20] of the same compound?
Answer: 0.81 µM

Question: What about the IC50 [23] of the same compound?
Answer: 1.4 µM

Question: And the IC50 [24]?
Answer: 1.2 µM

Question: And the IC50 [31]?
Answer: 0.86 µM

Question: And the IC50 [33]?
Answer: 4.8 µM

Question: With `O=C(CCCCCCC(=O)Nc1ccccc1)NO` [VORINOSTAT] as the compound, how does the IC50 [33] read?
Answer: 0.8 µM
